According to patent publication US20110046142A1, “ANTIBIOTIC COMPOUNDS” (priority 2007, published 2011):
Values after ≈ are worked out from the molar mass of the structure shown. Where two headings read alike, the source gives them in different places.

Assays:
Assay type in all cases: cell-based
[1] = test system: E. coli K12 overexpressing activating enzyme; assay: MIC, standard broth microdilution assay, overexpression strains
Protocol: (§1) The ASKA strains of interest are validated for functional expression of the enzyme. If the protein is not expressed from a given expression vector the ORF is recloned. A strain overexpressing the activating enzyme from the ASKA library is then tested with the hit compound. If the hit has greater activity against this overexpressing strain as compared to the wild type, this indicates a prodrug. The test is performed in a standard broth microdilution assay for MIC determination. Hits with the lowest wild type MIC are then examined.
(§2) Cells were tested in a standard broth microdilution assay, inoculating 10^5 cells per well of a microtiter plate in LB broth. Overexpression and deletion strains were compared to the appropriate isogenic wild type. IPTG was added at 1 mM to growth medium. Experiments involving nfnB and nfsA strains were performed under anaerobic conditions.

[2] = test system: E. coli K12 ΔtolC overexpressing activating enzyme; assay: MIC, standard broth microdilution assay, tolC deletion (MDR efflux)
Excerpt: Prodrugs are activated by activating enzymes into reactive molecules that bind to their targets, creating an irreversible sink. This may lead to insensitivity of the overall process to MDR efflux. In order to test this possibility, an E. coli K12 with a deletion in tolC coding for the outer membrane porin that is a component of the transenvelope MDRs was utilized (Li (2004) Drugs 64:159-204). This strain is highly sensitive to antibiotics (Tegos et al. (2002) Antimicrob. Agents Chemother. 46:3133-3141). […] The substrate specificity of AcrAB is remarkably broad, and includes essentially all small molecular weight amphipathic compounds. The AcrAB substrates include anions (SDS, fatty acids, bile acids), neutral compounds (macrolides, chloramphenicol, tetracyclines) and cations or compounds that can form cations (acridine, quaternary compound antiseptics, fluoroquinolones). AcrAB can extrude a natural broad spectrum antibiotics that evolved for good penetration, chloramphenicol and tetracycline; and also extrude synthetic broad-spectrums, the fluoroquinolones.
as §2

E. coli K12 wt = assay: MIC, standard broth microdilution assay; conditions: LB broth, 10^5 cells per well, 1 mM IPTG
Protocol: as §1, §2

[3] = test system: E. coli strains overexpressing NfnB+ and NfsA+; assay: MIC, validation of screen hits, overexpression strains
Protocol: (§3) To validate the screening, the activity of nitazole against strains with nitrate reductases deleted and in strains overexpressing nitrate reductases were tested. A prodrug activated by a nitrate reductase has lower activity against a strain lacking the enzyme, and a higher activity in an overexpression strain, as compared to a wild type. E. coli has two known […], NfnB and NfsA. Strains tested were wild type (WT) E. coli, two knockout strains lacking the 2 nitroreductases (NfnB−; NfsA−), and against two strains overexpressing the same enzymes (NfnB+ and NfsA+). MIC values for nitazole are shown below.

[4] = test system: E. coli K12 knockout pool (BacPool) and wild type; assay: Prodrug screen, growth/no growth of BacPool knockout mix versus wild type; conditions: compounds at about 46-50 μg/ml, OD600 after overnight incubation
Excerpt: A complete, ordered E. coli K12 knockout library of 4320 genes and predicted ORFs (the Keio library) was used (Baba et al. (2006). Mol. Systems Biol. 2:2006.0008). The knockouts were constructed using the Wanner method with a kanamycin cassette replacing the ORFs (Datsenko et al. (2000) Proc. Natl. Acad. Sci. USA 97:6640-6645). All strains of this library were combined in a mix BacPool1) for screening. This permitted screening of the library against all strains simultaneously, instead of screening a full industry-size library against each of the individual E. coli 4×10^3 knockout strains.
The library mix was prepared by first culturing all strains overnight in LB medium, and then adding equal aliquots into a tube. This material was then mixed, dispensed in vials and stored at −80° C. For the screen, one vial was thawed, diluted to 10^5 cells/ml in LB, and dispensed into 384 well microtiter plates. The compounds were added from DMSO stocks at a final concentration of 46 μg/ml. The same compounds were added to plates containing the wild type isogenic control. Screening was performed at the Harvard NSRB/NERCE screening facility that host a collection of 150,000 compounds (see Tables 1A and 1B). All screens at NSRB/NERCE were performed in duplicate, which strongly decreases the rate of false positives and negatives. For each tested molecule there are three possible scenarios when scoring for growth/no growth:
Growth in both the BacPool and K12 wells: indicates lack of antimicrobial activity;
Growth inhibition in both the BacPool and K12 wells: a possible antibiotic (direct activity) or generally toxic compound is present, but is not a prodrug; or
Growth of a BacPool well and no growth of the K12 well: a prodrug hit.
After an overnight incubation of plates at 37° C., the plates were read at OD600. Compounds that had no effect on the growth of the mix and inhibited the growth of the wild type were recorded as hits. The wells with growth indicated a prodrug hit that is not converted into a drug by a particular deletion mutant in the mix. The mutant strain is then identified in a secondary screen (see Example 2).
Yet another screen was performed on 147,500 compounds, using the protocol described below. […]
An E. coli KanR culture was grown in LB broth containing 50 μg/ml Kanamycin for 20 hrs at 37° C. in a shaking incubator. […] The plates were then incubated for 20 hrs at 37° C., and then the plates were read for Optical Density at 600 nm and were scored for growth/no growth. […]
Hits were identified by calculating the % of inhibition of growth of E. coli measured by OD600. The data were analyzed as follows: negative controls (N), positive controls (P), and compounds (X) ODs were separately averaged and the resulting means were used to calculate % of inhibition of E. coli growth: […]

[5] = test system: E. coli knockout strains lacking the 2 nitroreductases (NfnB−; NfsA−); assay: MIC, validation of screen hits, knockout strains
Protocol: as §3

wild type (WT) E. coli = assay: MIC, validation of screen hits
Protocol: as §3

[6] = test system: E. coli K12 Δactivating enzyme; assay: MIC, standard broth microdilution assay, deletion strains
Protocol: as §1, §2

P. aeruginosa = assay: Killing of logarithmic, stationary and biofilm cultures, colony count
Protocol: Persister cells in planktonic and biofilm populations are characterized for their antibiotic sensitivity in this example. Several bactericidal antimicrobials were chosen to test the resistance of P. aeruginosa to killing—ofloxacin, a fluoroquinolone; tobramycin, an aminoglycoside; carbenicillin, a β-lactam; and peracetic acid, a disinfectant oxidant (Spoering et al. (2001) J. Bacteriol. 183:6746-6751). Biofilms were grown essentially by the method of Ceri (Ceri et al. (1999) J. Clin. Microbiol. 37:1771-1776) and as described in Brooun et al. (2000) Antimicrob. Agents Chemother. 44:640-646. The device used for biofilm formation is a platform carrying 96 polystyrene pegs that fit in a microtiter plate. Preformed biofilms were incubated in the presence of an antimicrobial agent, and survival was measured after disrupting the biofilms by colony count.
Logarithmic state, stationary and biofilm cultures were challenged with carbenicillin. Carbenicillin is a bactericidal antibiotic that, similarly to most β-lactams, only kills rapidly growing cells (Tuomanen et al. (1986) Scand. J. Gastroenterol. Suppl:10-14). […] The amount of killing of logarithmic cells approached a plateau at concentrations above 1.67×MIC, indicating the presence of a persister subpopulation. These 0.1% cells in the rapidly growing logarithmic culture were invulnerable to killing by carbenicillin at 600 μg/ml.
Unlike carbenicillin, ofloxacin can kill non-growing cells (Brooun et al. (2000) Antimicrob. Agents Chemother. 44:640-646). Logarithmic, stationary and biofilm cultures were challenged with ofloxacin over a wide range of concentrations, from 1×MIC (0.5 μg/ml) to 30×MIC (15 μg/ml). After a 6 hrs incubation time with the antibiotic, viability was determined by colony count. The majority of cells in the three populations examined were killed at low concentrations of ofloxacin (FIG. 3B). The killing in all three cultures was distinctly biphasic, indicating the presence of persister cells. The levels of persisters were dramatically higher in the dense stationary planktonic and biofilm cultures as compared to logarithmic cells. […] At 5 μg/ml ofloxacin, which is the clinically achievable concentration (Schulz et al. (1997) Pharmazie 52:895-911), the percentage of live cells was 0.001% in the logarithmic population, 0.1% in the biofilm and 2.5% in the stationary culture (FIG. 3B).
Tobramycin at 50 μg/ml (the maximal clinically achievable concentration is 10 μg/ml), (Schulz et al. (1997) Pharmazie 52:895-911) eliminated 90% of the biofilm cells, and the remaining population declined gradually with increasing amounts of the antibiotic. At high concentrations surviving persisters became apparent. Tobramycin was ineffective against stationary planktonic cells, apparently due to the dependence of killing of growth.
Peracetic acid, an oxidizing disinfectant, was used in order to test the ability of a sterilizing agent to act against persisters. […] Similar results showing biphasic killing, and high level of persisters in stationary and biofilm populations, also were obtained with S. aureus and E. coli (Keren et al. (2004) FEMS Microbiol. Lett. 230:13-18).

[7] = nfsA^+ overexpressing strain, 1 mM IPTG, anaerobic conditions
[8] = ΔtolC, nfnB^+ overexpressing strain
[9] = ΔtolC, nfsA^+ overexpressing strain
[10] = Escherichia coli, K12WT, read-out: MIC
[11] = Escherichia coli, read-out: MIC
[12] = nfnB^+ overexpressing strain, 1 mM IPTG, anaerobic conditions
[13] = nfnB^− deletion strain, anaerobic conditions
[14] = nfsA^− deletion strain, anaerobic conditions

Compound: CC[C@H]1OC(=O)[C@H](C)[C@@H](O[C@H]2C[C@@](C)(OC)[C@@H](O)[C@H](C)O2)[C@H](C)[C@@H](O[C@@H]2O[C@H](C)C[C@H](N(C)C)[C@H]2O)[C@](C)(O)C[C@@H](C)C(=O)[C@H](C)[C@@H](O)[C@]1(C)O [Erythromycin]
- MIC ([1]; Escherichia coli): 200 µg/mL (≈ 273 µM)
- MIC ([1]; codA^+ overexpressing strain, 1 mM IPTG): codA^+ 200 μg/ml
- MIC ([1]; deoD^+ overexpressing strain, 1 mM IPTG): deoD^+ 200 μg/ml
- MIC [1, 7]: nfsA^+ 200 μg/ml
- MIC ([2]; Escherichia coli): 1.56 µg/mL (≈ 2.13 µM)
- MIC ([2]; ΔtolC, codA^+ overexpressing strain): codA^+ 1.56 μg/ml
- MIC ([2]; ΔtolC, deoD^+ overexpressing strain): deoD^+ 1.56 μg/ml
- MIC [2, 8]: nfnB^+ 1.56 μg/ml
- MIC [2, 9]: nfsA^+ 1.56 μg/ml
- MIC (E. coli K12 wt; [10]): 200 µg/mL (≈ 273 µM)

Compound: CC(=O)Nc1ncc([N+](=O)[O-])s1 [nitazole, Acetamide, N-(5-nitro-2-thiazolyl)-(8CI,9CI)]
- MIC ([3]; Escherichia coli, NfnB+): 1.6 µg/mL (≈ 8.55 µM)
- MIC ([3]; Escherichia coli, NfsA+): 6.3 µg/mL (≈ 33.7 µM)
- screen outcome (prodrug hit / direct activity) [4]: prodrug hits
- MIC ([5]; Escherichia coli): 25 µg/mL (≈ 134 µM)
- MIC ([5]; NfsA−): 25 µg/mL (≈ 134 µM)
- MIC (wild type (WT) E. coli; [11]): 12.5 µg/mL (≈ 66.8 µM)

Compound: benzoxazole, 2,3-dihydro-5-nitro-2-(5-nitro-2-thienyl)-(9CI)
- MIC ([3]; NfnB+): 3.1 µg/mL
- MIC ([3]; NfsA+): 6.3 µg/mL
- screen outcome (prodrug hit / direct activity) [4]: prodrug hit
- MIC ([5]; NfnB−): 25 µg/mL
- MIC ([5]; NfsA−): 25 µg/mL
- MIC (wild type (WT) E. coli): 12.5 µg/mL

Compound: Nc1nc(O)ncc1F [5-fluorocytosine, 5-Fluorocytosine]
- MIC ([1]; Escherichia coli): 625 µg/mL (≈ 4840 µM)
- MIC ([6]; Escherichia coli, codA^− deletion strain): > 2500 µg/mL
- MIC ([2]; Escherichia coli): 625 µg/mL (≈ 4840 µM)
- MIC (E. coli K12 wt; [10]): > 2500 µg/mL

Compound: NC(=O)c1cc([N+](=O)[O-])cc([N+](=O)[O-])c1 [3,5-Dinitrobenzamide]
- MIC [1, 12]: nfnB^+ 15.6 μg/ml
- MIC [1, 7]: nfsA^+ 7.8 μg/ml
- MIC [6, 13]: nfnB^− > 500 μg/ml
- MIC [6, 14]: nfsA^− > 500 μg/ml
- MIC [2, 8]: nfnB^+ 15.6 μg/ml
- MIC [2, 9]: nfsA^+ 7.8 μg/ml
- MIC (E. coli K12 wt): 250 µg/mL (≈ 1180 µM)

Compound: CC(=O)OO [Peracetic acid]
- sterilization of cultures (P. aeruginosa; logarithmic, stationary and biofilm cultures): all cultures were sterilized

Compound: Nc1nc(F)nc2c1ncn2[C@@H]1O[C@H](CO)[C@@H](O)[C@@H]1O [Fludarabine]
- MIC ([1]; Escherichia coli): 125 µg/mL (≈ 438 µM)
- MIC ([6]; Escherichia coli, deoD^− deletion strain): > 500 µg/mL
- MIC ([2]; Escherichia coli): 125 µg/mL (≈ 438 µM)
- MIC (E. coli K12 wt; [10]): > 500 µg/mL

Compound: CC1(C)S[C@@H]2[C@H](NC(=O)C(C(=O)O)c3ccccc3)C(=O)N2[C@H]1C(=O)O (stereo partly drawn) [carbenicillin]
- killing of biofilm cells (P. aeruginosa; biofilm): resistant to killing
- concentration at which the majority of logarithmic cells were killed (P. aeruginosa; logarithmic cells): 1.67 ×MIC
- cells invulnerable to killing (persister subpopulation) (P. aeruginosa; rapidly growing logarithmic culture, 600 μg/ml): 0.1%
- killing of stationary cells (P. aeruginosa; stationary planktonic cells): little killing

Compound: S=C(Nc1cccc(Cl)c1)Nc1cccc(Cl)c1 [PD18, thiourea, N,N′-bis(3-chlorophenyl)-(9CI)]
- screen outcome (prodrug hit / direct activity) [4]: prodrug hits
- MIC (wild type (WT) E. coli; [11]): 25 µg/mL (≈ 84.1 µM)

Compound: NC(=O)c1cc(N2CC2)c([N+](=O)[O-])cc1[N+](=O)[O-] [Dinitroaziridinylbenzamide (CB1954), Dinitroaziridinylbenzamide]
- MIC [1, 12]: nfnB^+ 3.3 μg/ml
- MIC [1, 7]: nfsA^+ 6.3 μg/ml
- MIC [6, 13]: nfnB^− > 200 μg/ml
- MIC [6, 14]: nfsA^− > 200 μg/ml
- MIC [2, 8]: nfnB^+ 3.3 μg/ml
- MIC [2, 9]: nfsA^+ 6.3 μg/ml
- MIC (E. coli K12 wt): >200 µg/mL
